Results as given in US10501497B2, “Cyclic polypeptides, method for obtaining them and the therapeutic use thereof” (AXOLTIS PHARMA, priority 2015, dated 2019).
In brackets after ≈: the same amount, converted by molar mass. Where two headings read alike, the source gives them in different places. Bridge positions count the residues as written; N and C are the ends. Peptide text beside a SMILES is read from it.

What was measured:
[1] = target: neprylysine (Homo sapiens, UniProt P08473); assay: Enzymatic digestion with neprylysine analysed by LC/MS/MS; type: in vitro ADME; conditions: for Percentage of digestion / metabolised at 0.5 h: neprylysine; for Area under the curve in the presence of enzyme: neprylysine diluted by a tenth in water; for Area under the control curve (no enzyme): LC/MS/MS; for metabolised at 0.5 h: read-out: Percentage of digestion
Procedure: A so-called “control” sample without enzyme and effected in parallel was performed to establish an analytical reference for each parameter explored. The polypeptides are diluted in deoxygenated water to maintain the stability of both forms over time. Digestions were analyzed by the LC/MS/MS mass spectrometry technique. The percentage of digestion corresponds, for a given polypeptide, to the percentage of the area under the curve in the presence of enzyme relative to the area under the control curve for the same polypeptide.

[2] = physchem; conditions: aqueous 0.9% NaCl solution
Procedure: Two weighings of 0.5 mg are made in a 1.5 ml micro tube for the polypeptide
The tubes are then vortexed for a few seconds and one drop of each polypeptide solution so obtained is placed on a glass slide for observation under an optical microscope.

[3] = physchem; type: physicochemical
Procedure: In the case of the polypeptide of amino acid sequence: […] Solubility is particularly important for IT injections because there is a limitation of the injection volume, a limit which is much greater than that for peripheral injections, and a limitation in the solvents and solutions that may be used, for example. The use of a 5% glucose solution improves the solubility of the polypeptide of amino acid sequence: […] [SEQ ID NO: 58] by bringing it to around 10 mg/ml, wherein this solution remains an isotonic solution that is compatible with an IT injection.

neprylysine, sequence (P08473 whole entry): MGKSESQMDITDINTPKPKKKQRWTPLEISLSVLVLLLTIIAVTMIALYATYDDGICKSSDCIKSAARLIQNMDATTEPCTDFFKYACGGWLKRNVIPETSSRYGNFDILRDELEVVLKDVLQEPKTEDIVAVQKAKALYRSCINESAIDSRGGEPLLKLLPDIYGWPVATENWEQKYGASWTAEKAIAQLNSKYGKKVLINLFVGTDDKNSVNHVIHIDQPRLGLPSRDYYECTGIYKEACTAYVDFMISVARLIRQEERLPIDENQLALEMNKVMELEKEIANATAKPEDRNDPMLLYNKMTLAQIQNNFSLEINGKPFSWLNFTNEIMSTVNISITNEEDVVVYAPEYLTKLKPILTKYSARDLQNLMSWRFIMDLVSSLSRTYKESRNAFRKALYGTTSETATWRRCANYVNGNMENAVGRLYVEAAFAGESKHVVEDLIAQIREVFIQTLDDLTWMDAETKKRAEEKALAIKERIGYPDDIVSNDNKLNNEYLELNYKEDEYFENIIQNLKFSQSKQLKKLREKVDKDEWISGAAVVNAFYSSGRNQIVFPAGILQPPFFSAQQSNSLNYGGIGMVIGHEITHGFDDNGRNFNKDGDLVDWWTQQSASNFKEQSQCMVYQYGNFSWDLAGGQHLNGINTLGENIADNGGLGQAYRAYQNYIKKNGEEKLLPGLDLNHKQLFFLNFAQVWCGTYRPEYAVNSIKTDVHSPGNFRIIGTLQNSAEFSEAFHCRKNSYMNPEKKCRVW

Compound	Percentage of digestion ([1]; T = 0 min)	Area under the curve in the presence of enzyme ([1]; T = 0 min)	Area under the control curve (no enzyme) ([1]; T = 0 min)	Percentage of digestion ([1]; T = 30 min) [%]	Area under the curve in the presence of enzyme ([1]; T = 30 min)	Area under the control curve (no enzyme) ([1]; T = 30 min)	metabolised at 0.5 h ([1]; isolated enzyme neprilysin, T = 30 min) [%]	solubility [2] [µg/mL]	solubility ([3]; solubility in 5% glucose solution) [µg/mL]	solubility ([3]; solubility in the physiological liquid) [µg/mL]	metabolised at 0.5 h ([1]; isolated neprylysine enzyme, T = 30 min) [%]
N=C(N)NCCC[C@@H]1NC(=O)[C@H](CO)NC(=O)[C@@H](NC(=O)[C@H](CO)NC(=O)[C@H](CO)NC(=O)[C@H](Cc2c[nH]c3ccccc23)NC(=O)CNC(=O)[C@H](CO)NC(=O)[C@@H](N)Cc2c[nH]c3ccccc23)CSSC[C@@H](C(=O)NCC(=O)O)NC(=O)[C@H](CO)NC1=O [SEQ ID NO: 2, W-S-G-W-S-S-C-S-R-S-C-G] (H-WSGWSSCSRSCG-OH; disulfide 7-11)	none	3220000	3008000	8.5	3401000	3722000	8.5				
N=C(N)NCCC[C@H](NC(=O)[C@H](CO)NC(=O)[C@H](CS)NC(=O)[C@H](CO)NC(=O)[C@H](CO)NC(=O)[C@H](Cc1c[nH]c2ccccc12)NC(=O)CNC(=O)[C@H](CO)NC(=O)[C@@H](N)Cc1c[nH]c2ccccc12)C(=O)N[C@@H](CO)C(=O)N[C@@H](CS)C(=O)NCC(=O)O [SEQ ID NO: 58, W-S-G-W-S-S-C-S-R-S-C-G] (H-WSGWSSCSRSCG-OH; N-terminus and C-terminus assumed)	none	797200	788400	28	576500	802800		~2000 (≈ 1540 µM)	~10000 (≈ 7680 µM)	1000 to 2000 (≈ 768 to 1540 µM)	28
